The test system of one data set is TNBC LM2-4-luc cells. The data set is described as follows: TNBC LM2-4 mouse model of spontaneous metastasis. In kind it is in vivo, SCID mice. The conditions noted are these: nal-IRI 10 mg/kg salt, nonliposomal irinotecan 50 mg/kg salt, IV every 7 days. An excerpt:
42 female SCID mice were inoculated with TNBC LM2-4-luc cells in their lower right inguinal mammary fat pad. […] Post primary tumor resection, bioluminescence imaging (BLI), (BLI, Xenogen, Perkin Elmer) was used to monitor metastasis formulation. […] Animals were monitored 2-3 times per week using BLI and at the study endpoint using a 1T MRI (M3, Aspect Imaging).

The conditions of data set [1]: 5-day regimen; cited from earlier work.

`CCc1c2c(nc3ccc(OC(=O)N4CCC(N5CCCCC5)CC4)cc13)-c1cc3c(c(=O)n1C2)COC(=O)[C@]3(O)CC` [irinotecan]: the “Metastatic burden, median bioluminescence flux” value in the data set on TNBC LM2-4-luc cells (day 12) is 2.1×10^9. Further, the Median survival with TNBC LM2-4-luc cells is recorded as 14 days.
In the case of `C[C@@H](O)[C@@H]1NC(=O)[C@H](CCCCN)NC(=O)[C@@H](Cc2c[nH]c3ccccc23)NC(=O)[C@H](Cc2ccccc2)NC(=O)[C@@H](NC(=O)[C@H](N)Cc2ccccc2)CSSC[C@@H](C(=O)N[C@H](CO)[C@@H](C)O)NC1=O` [octreotide], the Maximum tolerated dose in data set [1] was 2000 micrograms three times daily.

(Values after patent publication US20170151226A1, “Treatment of Breast Cancer with Liposomal Irinotecan” (priority 2014, published 2017).)
